Measured values reported in BindingDB's records for doi:10.1016/j.bmcl.2012.06.023 (University of Siena, 2012).
pIC50: −log10 of the molar value.

Target: Subtilisin-like protease 1 (Plasmodium falciparum, UniProt O61142)
Assay: Inhibition of Plasmodium falciparum SUB1 by fluorimetric assay

Sequence of Subtilisin-like protease 1 (O61142 220-690 limits assumed): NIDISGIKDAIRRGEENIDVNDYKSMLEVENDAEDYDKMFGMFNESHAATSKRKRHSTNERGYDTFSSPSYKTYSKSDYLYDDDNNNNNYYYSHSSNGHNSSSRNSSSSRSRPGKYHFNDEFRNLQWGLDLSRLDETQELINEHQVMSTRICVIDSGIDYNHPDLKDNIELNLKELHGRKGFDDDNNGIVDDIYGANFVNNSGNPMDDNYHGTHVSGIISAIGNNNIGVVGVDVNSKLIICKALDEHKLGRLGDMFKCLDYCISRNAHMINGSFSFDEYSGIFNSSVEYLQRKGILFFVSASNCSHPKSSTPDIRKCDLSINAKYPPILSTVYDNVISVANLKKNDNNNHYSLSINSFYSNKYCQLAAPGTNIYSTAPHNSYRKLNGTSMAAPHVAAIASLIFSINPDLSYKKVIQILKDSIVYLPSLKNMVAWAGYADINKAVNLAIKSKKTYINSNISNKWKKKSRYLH

Row | SMILES | pIC50
1 | Cc1cc(N=NCc2ccccc2[N+](=O)[O-])c2cc3c(cc2n1)OCO3 | 4.40
2 | Cc1cc(N=NCc2ccc(C#N)cc2)c2cc3c(cc2n1)OCO3 | 4.40
3 | Cc1cc(N=NCc2ccc([N+](=O)[O-])cc2)c2cc3c(cc2n1)OCO3 | 4.70
4 | O=[N+]([O-])c1ccc(CN=Nc2c3c(nc4ccccc24)CCCC3)cc1 | < 4.30
5 | O=[N+]([O-])c1ccc(CN=Nc2nc3ccccc3[nH]2)cc1 | < 4.30
6 | COc1ccc2nc(C)cc(N=NCc3ccc([N+](=O)[O-])cc3)c2c1 [TCMDC-123970] | 4.70
